Measured values as given in patent publication US7888363B2, “Viral polymerase inhibitors” (Boehringer Ingelheim International GmbH, priority 2003, dated 2011).

The compounds below were run against hepatitis C virus RNA dependant polymerase (NS5B) (Hepatitis C virus genotype 1b, UniProt P26663) (assay: Inhibition of NS5B RNA dependent RNA polymerase activity). Details: Table 1; HCV NS5B polymerase.
hepatitis C virus RNA dependant polymerase (NS5B), sequence (P26663 2420-3010): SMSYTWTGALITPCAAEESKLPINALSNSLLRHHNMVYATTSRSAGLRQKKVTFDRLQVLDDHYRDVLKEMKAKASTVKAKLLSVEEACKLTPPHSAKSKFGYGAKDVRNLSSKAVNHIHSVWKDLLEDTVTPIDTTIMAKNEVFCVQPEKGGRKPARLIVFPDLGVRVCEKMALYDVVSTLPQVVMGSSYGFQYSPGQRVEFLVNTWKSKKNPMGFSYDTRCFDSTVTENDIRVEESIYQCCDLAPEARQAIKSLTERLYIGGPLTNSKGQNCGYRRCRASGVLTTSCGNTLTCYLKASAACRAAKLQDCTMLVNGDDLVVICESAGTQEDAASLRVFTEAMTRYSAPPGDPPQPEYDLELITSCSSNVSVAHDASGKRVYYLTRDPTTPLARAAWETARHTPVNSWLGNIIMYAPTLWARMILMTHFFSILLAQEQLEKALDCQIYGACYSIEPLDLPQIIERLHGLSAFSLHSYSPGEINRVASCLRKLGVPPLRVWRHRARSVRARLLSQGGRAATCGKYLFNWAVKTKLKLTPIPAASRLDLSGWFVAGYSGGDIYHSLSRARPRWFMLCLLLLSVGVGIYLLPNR
Format: biochemical
Method: A suitable assay is described in the examples.
Inhibition of NS5B RNA Dependent RNA Polymerase Activity
The compounds of the invention were tested for inhibitory activity against the hepatitis C virus RNA dependant polymerase (NS5B), according to protocol described in WO 03/010141
`O=C(O)c1ccc2c(C3CCCCC3)c(-c3ccccn3)n(CC(=O)N3CCCCC3)c2c1` [Example 1085] was tested, and the IC50 was 200 to 1000 nM. For `O=C(O)c1ccc2c(C3CCCCC3)c(-c3ccccc3)n(CC(=O)N3CCC(N4CCCC4)CC3)c2c1` [Example 1024], the IC50 was < 200 nM. `CC(C)N(C(=O)Cn1c(-c2ccoc2)c(C2CCCCC2)c2ccc(C(=O)O)cc21)C1CCCCC1` [Example 1091] was tested, and the IC50 was 200 to 1000 nM. `O=C(Cn1c(-c2ccoc2)c(C2CCCCC2)c2ccc(C(=O)O)cc21)Nc1ccc(C(=O)O)cc1` [Example 1061] was tested, and the IC50 was 200 to 1000 nM. For `O=C(Cn1c(-c2ccoc2)c(C2CCCCC2)c2ccc(C(=O)O)cc21)NCc1ccc(C(=O)O)cc1` [Example 1075], the IC50 was < 200 nM. `O=C(O)c1ccc2c(C3CCCCC3)c(-c3ccoc3)n(CC(=O)N3CCN(CCO)CC3)c2c1` [Example 1096] was tested, and the IC50 was < 200 nM. `CN(C)C(=O)Cn1c(-c2ccc(Br)cn2)c(C2CCCCC2)c2ccc(C(=O)O)cc21` [Example 1136] gave an IC50 of 200 to 1000 nM. With `Cc1ccccc1N(C)C(=O)Cn1c(-c2ccoc2)c(C2CCCCC2)c2ccc(C(=O)O)cc21` [Example 1115] the IC50 was 1000 to 10000 nM. With `CC1CN(C(=O)Cn2c(-c3ccoc3)c(C3CCCCC3)c3ccc(C(=O)O)cc32)CC(C)O1` (centres unmarked) [Example 1020] the IC50 was < 200 nM. `O=C(O)/C=C/c1ccc(NC(=O)Cn2c(-c3ccoc3)c(C3CCCCC3)c3ccc(C(=O)O)cc32)cc1` [Example 1071] was tested, and the IC50 was 200 to 1000 nM. In the case of `CN(C)C(=O)Cn1c(-c2cccs2)c(C2CCCCC2)c2ccc(C(=O)O)cc21` [Example 1035], the IC50 is reported as < 200 nM. For `O=C(O)c1ccc2c(C3CCCCC3)c(-c3ccoc3)n(CC(=O)N3CCC(N4CCCC4)CC3)c2c1` [Example 1116], the IC50 was < 200 nM. For `CN(CCc1ccccn1)C(=O)Cn1c(-c2ccoc2)c(C2CCCCC2)c2ccc(C(=O)O)cc21` [Example 1103], the IC50 was < 200 nM. For `O=C(O)/C=C/c1ccc(NC(=O)[C@@]2(NC(=O)Cn3c(-c4ccoc4)c(C4CCCCC4)c4ccc(C(=O)O)cc43)CCNC2)cc1` [Example 1079], the IC50 was < 200 nM. In the case of `CCCN(CCOC)C(=O)Cn1c(-c2ccoc2)c(C2CCCCC2)c2ccc(C(=O)O)cc21` [Example 1015], the IC50 is reported as 200 to 1000 nM. `O=C(Cn1c(-c2ccc(Br)cn2)c(C2CCCCC2)c2ccc(C(=O)O)cc21)N[C@@H](Cc1c[nH]c2cc(O)ccc12)C(=O)O` [Example 1140] was tested, and the IC50 was 200 to 1000 nM. With `O=C(O)c1ccc2c(C3CCCCC3)c(-c3ccoc3)n(CC(=O)N3CCN(c4ccccc4)CC3)c2c1` [Example 1095] the IC50 was 200 to 1000 nM. `O=C(O)/C=C/c1ccc(NC(=O)[C@]2(NC(=O)Cn3c(-c4ccoc4)c(C4CCCCC4)c4ccc(C(=O)O)cc43)CCNC2)cc1` [Example 1077] was tested, and the IC50 was < 200 nM. Work on `O=C(Cn1c(-c2ccoc2)c(C2CCCCC2)c2ccc(C(=O)O)cc21)Nc1ccccc1` [Example 1060] yielded an IC50 of 200 to 1000 nM. With `CN(C)C(=O)CN(C)C(=O)Cn1c(-c2ccoc2)c(C2CCCCC2)c2ccc(C(=O)O)cc21` [Example 1121] the IC50 was < 200 nM. Work on `CC(C)N(C(=O)Cn1c(-c2ccoc2)c(C2CCCCC2)c2ccc(C(=O)O)cc21)C(C)C` [Example 1108] yielded an IC50 of 200 to 1000 nM. With `CC(C)N1CCN(C(=O)Cn2c(-c3ccoc3)c(C3CCCCC3)c3ccc(C(=O)O)cc32)CC1` [Example 1125] the IC50 was < 200 nM. `CN(C)C(=O)Cn1c(-c2ccccn2)c(C2CCCCC2)c2ccc(C(=O)O)cc21` [Example 1142] was tested, and the IC50 was 200 to 1000 nM.

Same assay, conditions: Table 2; HCV NS5B polymerase
With `Cc1ccc(S(=O)(=O)NC(=O)c2ccc3c(C4CCCCC4)c(-c4ccoc4)n(CC(=O)N4CCOCC4)c3c2)cc1` [Example 2022] the IC50 was < 200 nM. With `O=C(NS(=O)(=O)c1ccc(Br)cc1)c1ccc2c(C3CCCCC3)c(-c3ccoc3)n(CC(=O)N3CCOCC3)c2c1` [Example 2008] the IC50 was < 200 nM. In the case of `O=C(NS(=O)(=O)c1c(Cl)sc(Cl)c1Br)c1ccc2c(C3CCCCC3)c(-c3ccoc3)n(CC(=O)N3CCOCC3)c2c1` [Example 2029], the IC50 is reported as < 200 nM. In the case of `O=C(NS(=O)(=O)c1ccc(OC(F)(F)F)cc1)c1ccc2c(C3CCCCC3)c(-c3ccoc3)n(CC(=O)N3CCOCC3)c2c1` [Example 2013], the IC50 is reported as < 200 nM. With `O=C(NS(=O)(=O)c1cc(Cl)sc1Cl)c1ccc2c(C3CCCCC3)c(-c3ccoc3)n(CC(=O)N3CCOCC3)c2c1` [Example 2030] the IC50 was < 200 nM. In the case of `N#Cc1ccccc1S(=O)(=O)NC(=O)c1ccc2c(C3CCCCC3)c(-c3ccoc3)n(CC(=O)N3CCOCC3)c2c1` [Example 2032], the IC50 is reported as 200 to 1000 nM.

Same assay, conditions: Table 3; HCV NS5B polymerase
For `NC(=O)[C@]1(NC(=O)c2ccc3c(C4CCCCC4)c(-c4ccoc4)n(CC(=O)N4CCOCC4)c3c2)CCNC1` [Example 3004], the IC50 was < 200 nM.

Same assay, conditions: Table 4; class ranges
In the case of `CNC(=O)c1ccc2c(C3CCCCC3)c(-c3ccoc3)n(CC(=O)N3CCOCC3)c2c1` [Example 4049], the IC50 is reported as 200 to 1000 nM. `O=C(NC1(C(=O)O)CCCC1)c1ccc2c(C3CCCCC3)c(-c3ccoc3)n(CC(=O)N3CCOCC3)c2c1` [Example 4074] gave an IC50 of 200 to 1000 nM. With `CN1CCN(C(=O)Cn2c(-c3ccoc3)c(C3CCCCC3)c3ccc(C(=O)NCCN4CCOCC4)cc32)CC1` [Example 4014] the IC50 was 200 to 1000 nM. `CN1CCN(C(=O)Cn2c(-c3ccoc3)c(C3CCCCC3)c3ccc(C(=O)NC(C)(C)CO)cc32)CC1` [Example 4019] was tested, and the IC50 was 200 to 1000 nM. In the case of `O=C(NCc1ccccn1)c1ccc2c(C3CCCCC3)c(-c3ccoc3)n(CC(=O)N3CCOCC3)c2c1` [Example 4046], the IC50 is reported as 200 to 1000 nM. For `Cc1nc(C2(NC(=O)c3ccc4c(C5CCCCC5)c(-c5ccoc5)n(CC(=O)N5CCC(N6CCCC6)CC5)c4c3)CCC2)cs1` [Example 4099], the IC50 was < 200 nM. `CCOC(=O)c1nc(C2(NC(=O)c3ccc4c(C5CCCCC5)c(-c5ccoc5)n(CC(=O)N5CCC(N6CCCC6)CC5)c4c3)CCC2)cs1` [Example 4108] gave an IC50 of 200 to 1000 nM. In the case of `CN1CCN(C(=O)Cn2c(-c3ccoc3)c(C3CCCCC3)c3ccc(C(=O)NCc4ccccc4)cc32)CC1` [Example 4021], the IC50 is reported as 200 to 1000 nM. With `NC(=O)C1(NC(=O)c2ccc3c(C4CCCCC4)c(-c4ccoc4)n(CC(=O)N4CCOCC4)c3c2)COCOC1` [Example 4085] the IC50 was < 200 nM. `NC(=O)C1(NC(=O)c2ccc3c(C4CCCCC4)c(-c4ccoc4)n(CC(=O)N4CCOCC4)c3c2)CCCCC1` [Example 4079] showed an IC50 of 200 to 1000 nM. `CN(C)C(=O)Cn1c(-c2ccoc2)c(C2CCCCC2)c2ccc(C(=O)NCCc3ccccc3)cc21` [Example 4055] showed an IC50 of 200 to 1000 nM. With `O=C(NCc1ccccc1)c1ccc2c(C3CCCCC3)c(-c3ccoc3)n(CC(=O)N3CCOCC3)c2c1` [Example 4047] the IC50 was 200 to 1000 nM. With `C[C@@H](NC(=O)c1ccc2c(C3CCCCC3)c(-c3ccoc3)n(CC(=O)N3CCC(N4CCCC4)CC3)c2c1)c1ccccc1` [Example 4005] the IC50 was < 200 nM. `COc1ccc([C@@H](C)NC(=O)c2ccc3c(C4CCCCC4)c(-c4ccoc4)n(CC(=O)N4CCOCC4)c3c2)cc1` [Example 4051] was tested, and the IC50 was 200 to 1000 nM. In the case of `O=C(NCCc1ccccc1)c1ccc2c(C3CCCCC3)c(-c3ccoc3)n(CC(=O)N3CCOCC3)c2c1` [Example 4048], the IC50 is reported as 1000 to 10000 nM. With `Cc1cnc(CNC(=O)c2ccc3c(C4CCCCC4)c(-c4ccoc4)n(CC(=O)N4CCN(C)CC4)c3c2)cn1` [Example 4044] the IC50 was 200 to 1000 nM. `CN(C)C(=O)Cn1c(-c2ccoc2)c(C2CCCCC2)c2ccc(C(=O)NCc3ccc4c(c3)OCO4)cc21` [Example 4052] showed an IC50 of 200 to 1000 nM. In the case of `CN1CCN(C(=O)Cn2c(-c3ccoc3)c(C3CCCCC3)c3ccc(C(=O)NCc4ccccn4)cc32)CC1` [Example 4015], the IC50 is reported as 200 to 1000 nM. Compound `CN1CCN(C(=O)Cn2c(-c3ccoc3)c(C3CCCCC3)c3ccc(C(=O)NCc4ccncc4)cc32)CC1` [Example 4018] has an IC50 of 200 to 1000 nM. `O=C(NC1(C(=O)O)COCOC1)c1ccc2c(C3CCCCC3)c(-c3ccoc3)n(CC(=O)N3CCOCC3)c2c1` [Example 4083] was tested, and the IC50 was < 200 nM. Work on `CN1CCN(C(=O)Cn2c(-c3ccoc3)c(C3CCCCC3)c3ccc(C(=O)NC4CCS(=O)(=O)C4)cc32)CC1` (centres unmarked) [Example 4033] yielded an IC50 of 1000 to 10000 nM. With `CC(C)C(CO)NC(=O)c1ccc2c(C3CCCCC3)c(-c3ccoc3)n(CC(=O)N3CCN(C)CC3)c2c1` (centres unmarked) [Example 4012] the IC50 was 200 to 1000 nM. With `Cn1c(C2(NC(=O)c3ccc4c(C5CCCCC5)c(-c5ccoc5)n(CC(N)=O)c4c3)CCC2)nc2ccc(C=CC(=O)O)cc21` [Example 4100] the IC50 was < 200 nM.

Same assay, conditions: Table 5; HCV NS5B polymerase
Work on `C=C(C)Cn1c(-c2ccoc2)c(C2CCCCC2)c2ccc(C(=O)O)cc21` [Example 5007] yielded an IC50 of 200 to 1000 nM. With `C/C=C/Cn1c(-c2ccoc2)c(C2CCCCC2)c2ccc(C(=O)O)cc21` [Example 5005] the IC50 was 1000 to 10000 nM.

Same assay, conditions: Table 7; class ranges
`O=C(Nc1cccc(-c2ccccc2)c1)c1ccc2c(c1)c(C1CCCCC1)c(-c1ccoc1)n2CC(=O)N1CCC(N2CCCC2)CC1` [Example 7037] was tested, and the IC50 was 1000 to 10000 nM. In the case of `NS(=O)(=O)c1ccc(CCNC(=O)c2ccc3c(c2)c(C2CCCCC2)c(-c2ccoc2)n3CC(=O)N2CCC(N3CCCC3)CC2)cc1` [Example 7032], the IC50 is reported as 1000 to 10000 nM. `O=C(NCCSCc1c(F)cccc1Cl)c1ccc2c(c1)c(C1CCCCC1)c(-c1ccoc1)n2CC(=O)N1CCC(N2CCCC2)CC1` [Example 7038] gave an IC50 of 1000 to 10000 nM. In the case of `Cc1cnc(CNC(=O)c2ccc3c(c2)c(C2CCCCC2)c(-c2ccoc2)n3CC(=O)N2CCC(N3CCCC3)CC2)cn1` [Example 7052], the IC50 is reported as 1000 to 10000 nM. `O=C(NCc1ccccn1)c1ccc2c(c1)c(C1CCCCC1)c(-c1ccoc1)n2CC(=O)N1CCC(N2CCCC2)CC1` [Example 7019] showed an IC50 of 1000 to 10000 nM. Compound `O=C(NC1CCCc2ccccc21)c1ccc2c(c1)c(C1CCCCC1)c(-c1ccoc1)n2CC(=O)N1CCC(N2CCCC2)CC1` (centres unmarked) [Example 7012] has an IC50 of 1000 to 10000 nM. With `CN(C)C(=O)c1ccc2c(c1)c(C1CCCCC1)c(-c1ccoc1)n2CC(=O)N1CCC(N2CCCC2)CC1` [Example 7033] the IC50 was 1000 to 10000 nM.
